Where two headings read alike, the source gives them in different places.

This is an account of results in article PMC6271529, “Studies on the Anticonvulsant Activity and Influence on GABA-ergic Neurotransmission of 1,2,4-Triazole-3-thione-Based Compounds” (Molecules, 2014).

The test system of series [1] is maximal electroshock-induced seizures. The series is described as follows: Maximal electroshock-induced seizure (MES) test in mice. As to conditions: for responders at 300 mg/kg / ED50: Mus musculus, ip; for responders at 300 mg/kg: read-out: percent of animals protected against MES-induced seizures; for anticonvulsant activity (in words): MES test; for ED50: read-out: ED50 ± S.E. (MES test); for PI (TD50/ED50): protective index; for onset of action: significant protection as early as 15 min after parenteral administration. Format: in vivo, mouse. The protocol: Additionally, all efforts were made to minimize animal suffering and to use only the number of animals necessary to produce reliable scientific data.
In the initial stage of the study, groups of eight mice were supplied with the compounds (administered intraperitoneally) in a dose of 300 mg/kg and then exposed to electrical impulse at fixed intervals (15, 30, 60, 120 min).
Each mouse was used only once.
Fresh drug solutions were prepared on each day of experimentation and administered at 15, 30, 60 and 120 min. before the initiation of maximal electroconvulsions. Electroconvulsions were produced by a current (0.2 s stimulus duration; 500 V, 50 Hz, fixed current intensity of 25 mA) delivered via ear-clip electrodes by a Rodent Shocker generator (constant-current stimulator Type 221, Hugo Sachs Elektronik, Freiburg, Germany). The criterion for the occurrence of seizure activity was the tonic hind limb extension. The animals were administered with a constant dose of 300 mg/kg of each of the examined compounds and were subjected to MES-induced seizures. […] The animals were administered with different doses of the tested compounds so as to obtain a variable percentage of protection against maximal electroconvulsions, allowing the construction of dose-response relationship lines for each examined compound administered i.p. at various pretreatment times, according to Litchfield and Wilcoxon. Each ED50 value represents the dose of the studied compounds that is required to protect 50% of the animals tested against MES-induced seizures.
In general terms: The maximal electroshock test induces tonic seizures with an electrical stimulus.

[2] abbreviates: 300 mg/kg i.p., pretreatment time 15 min, mice.
[3] abbreviates: 300 mg/kg i.p., pretreatment time 30 min, mice.
[4] abbreviates: 300 mg/kg i.p., pretreatment time 60 min, mice.
Where [5] appears, read: 300 mg/kg i.p., pretreatment time 120 min, mice.
Setting [6] is: 0.25 h, 300 mg/kg i.p., pretreatment time 15 min, mice.
Where [7] appears, read: 0.5 h, 300 mg/kg i.p., pretreatment time 30 min, mice.
Setting [8] is: 1 h, 300 mg/kg i.p., pretreatment time 60 min, mice.
Setting [9] is: 2 h, 300 mg/kg i.p., pretreatment time 120 min, mice.
Setting [10] is: pretreatment time 120 min, mice.
Where [11] appears, read: chimney TD50 / MES ED50, pretreatment time 15 min.
Where [12] appears, read: chimney TD50 / MES ED50, pretreatment time 30 min.

For orientation: melting point means the temperature of the solid-liquid transition. Take `Fc1cccc(-n2c(-c3cccc(Cl)c3)n[nH]c2=S)c1` [Compound 2a, 5-(3-Chlorophenyl)-4-(3-fluorophenyl)-2,4-dihydro-3H-1,2,4-triazole-3-thione]: the melting point fell in the range of 221 to 222 °C. For the same compound, the “p/t, number of animals protected against MES-induced seizures / number tested” value in series [1] (setting [2]) is given as 0/8. Besides, the “p/t, number of animals protected against MES-induced seizures / number tested” value in series [1] (setting [3]) is 0/8. The “p/t, number of animals protected against MES-induced seizures / number tested” value in series [1] (setting [4]) was 0/8. For the same compound, in series [1] (setting [5]), the “p/t, number of animals protected against MES-induced seizures / number tested” value is reported as 0/8. In addition, the responders at 300 mg/kg in series [1] (setting [6]) came out at 0%. Also, the responders at 300 mg/kg in series [1] (setting [7]) was found to be 0%. The responders at 300 mg/kg in series [1] (setting [8]) amounted to 0%. For the same compound, the responders at 300 mg/kg in series [1] (setting [9]) was 0%.
For orientation: ED50 means the dose at which the effect has come halfway, by size or by number of responders. As to `Fc1ccc(-n2c(-c3cccc(Cl)c3)n[nH]c2=S)cc1` [Compound 3a, 5-(3-Chlorophenyl)-4-(4-fluorophenyl)-2,4-dihydro-3H-1,2,4-triazole-3-thione], the “acute adverse effects at the screening dose” value in series [1] (300 mg/kg i.p., mice, protective effect in MES could not be established) was “acute adverse effects”. Moreover, the “anticonvulsant activity (in words)” value in series [1] (mice) is given as “most potent activity”. The ED50 in series [1] (pretreatment time 15 min, mice) was 35.2 ± 5.3 mg/kg; in series [1] (pretreatment time 30 min, mice) it was 93.6 ± 9.4 mg/kg; in series [1] (pretreatment time 60 min, mice), > 200 mg/kg; in series [1] (setting [10]), > 200 mg/kg. In series [1] (after i.p. administration, MES, mice), the “time to peak of the anticonvulsant action” value is 15 min. In series [1] (doses lowered to those not inducing neurotoxic effects, MES, mice), the “anticonvulsant activity at decreased doses” value is reported as “retained its anticonvulsant activity”. In series [1] (from ED50 values, MES), the “anticonvulsant activity relative to valproate” value was “approximately five and a half times higher than that of valproate”. Further, the “PI (TD50/ED50)” value was 3.9 in series [1] (setting [11]) and 1.6 in series [1] (setting [12]). In addition, in series [1] (MES, mice), the onset of action result is recorded as “quick onset of action”.
Take `S=c1[nH]nc(-c2cccc(Cl)c2)n1-c1ccc(Cl)cc1` [Compound 4a, 4-(4-Chlorophenyl)-5-(3-chlorophenyl)-2,4-dihydro-3H-1,2,4-triazole-3-thione]: the “p/t, number of animals protected against MES-induced seizures / number tested” value is 8/8 in series [1] (setting [2]), 8/8 in series [1] (setting [3]), 7/8 in series [1] (setting [4]) and 7/8 in series [1] (setting [5]). Besides, the responders at 300 mg/kg in series [1] (setting [6]) was 100%; in series [1] (setting [7]), 100%; in series [1] (setting [8]), 87.5%; in series [1] (setting [9]) it was 87.5%. The ED50 in series [1] (pretreatment time 15 min, mice) worked out at 90.1 ± 15.7 mg/kg; in series [1] (pretreatment time 30 min, mice), 135 ± 19.8 mg/kg; in series [1] (pretreatment time 60 min, mice), 171 ± 21.4 mg/kg; in series [1] (setting [10]), 184 ± 28 mg/kg. Further, the “PI (TD50/ED50)” value in series [1] (setting [11]) is given as 3.9; in series [1] (setting [12]), 2.7; in series [1] (chimney TD50 / MES ED50, pretreatment time 60 min), 2.1; in series [1] (chimney TD50 / MES ED50, pretreatment time 120 min), 2.0. Besides, the onset of action entry in series [1] (MES, mice) is “quick onset of action”.
`S=c1[nH]nc(-c2cccc(Cl)c2)n1-c1ccc(I)cc1` [Compound 7a, 5-(3-Chlorophenyl)-4-(4-iodophenyl)-2,4-dihydro-3H-1,2,4-triazole-3-thione]: the “p/t, number of animals protected against MES-induced seizures / number tested” value in series [1] (setting [2]), in series [1] (setting [3]), in series [1] (setting [4]) and in series [1] (setting [5]) was 0/8 each time. Further, the “anticonvulsant activity (in words)” value in series [1] (mice) is “inactive”. For the same compound, the responders at 300 mg/kg in series [1] (setting [6]), in series [1] (setting [7]), in series [1] (setting [8]) and in series [1] (setting [9]) was 0% in each case.
On to `Cc1ccccc1-n1c(-c2cccc(Cl)c2)n[nH]c1=S` [Compound 8a, 5-(3-Chlorophenyl)-4-(2-methylphenyl)-2,4-dihydro-3H-1,2,4-triazole-3-thione], for which the melting point was 186 to 188 °C. In addition, the “p/t, number of animals protected against MES-induced seizures / number tested” value in series [1] (setting [2]) is reported as 0/8. Besides, the “p/t, number of animals protected against MES-induced seizures / number tested” value in series [1] (setting [3]) is recorded as 0/8. For the same compound, in series [1] (setting [4]), the “p/t, number of animals protected against MES-induced seizures / number tested” value is recorded as 0/8. In addition, the “p/t, number of animals protected against MES-induced seizures / number tested” value in series [1] (setting [5]) is recorded as 0/8. Further, the responders at 300 mg/kg in series [1] (setting [6]) turned out to be 0%. The responders at 300 mg/kg in series [1] (setting [7]) was found to be 0%. Further, the responders at 300 mg/kg in series [1] (setting [8]) came out at 0%. Moreover, in series [1] (setting [9]), the responders at 300 mg/kg came to 0%.
Regarding `Cc1cccc(-n2c(-c3cccc(Cl)c3)n[nH]c2=S)c1` [Compound 9a, 5-(3-Chlorophenyl)-4-(3-methylphenyl)-2,4-dihydro-3H-1,2,4-triazole-3-thione], the melting point fell in the range of 200 to 201 °C. Further, the “p/t, number of animals protected against MES-induced seizures / number tested” value in series [1] (setting [2]) is 0/8. Moreover, the “p/t, number of animals protected against MES-induced seizures / number tested” value in series [1] (setting [3]) is listed as 0/8. Moreover, the “p/t, number of animals protected against MES-induced seizures / number tested” value in series [1] (setting [4]) is reported as 0/8. In series [1] (setting [5]), the “p/t, number of animals protected against MES-induced seizures / number tested” value was 1/8. The responders at 300 mg/kg in series [1] (setting [6]) came out at 0%. Further, in series [1] (setting [7]), the responders at 300 mg/kg stood at 0%. Also, the responders at 300 mg/kg in series [1] (setting [8]) is 0%. In addition, in series [1] (setting [9]), the responders at 300 mg/kg came out at 12.5%.
With `S=c1n(CN2CCOCC2)nc(-c2cccc(Cl)c2)n1-c1ccc(Br)cc1` [Compound 19a, 4-(4-Bromophenyl)-5-(3-chlorophenyl)-2-(morpholin-4-ylmethyl)-2,4-dihydro-3H-1,2,4-triazole-3-thione], the “p/t, number of animals protected against MES-induced seizures / number tested” value in series [1] (setting [2]), in series [1] (setting [3]), in series [1] (setting [4]) and in series [1] (setting [5]) was 0/8 throughout. The responders at 300 mg/kg in series [1] (setting [6]), in series [1] (setting [7]), in series [1] (setting [8]) and in series [1] (setting [9]) was 0% throughout.
As to `S=c1n(CN2CCN(c3ccccc3)CC2)nc(-c2cccc(Cl)c2)n1-c1ccc(Br)cc1` [Compound 20a, 4-(4-Bromophenyl)-5-(3-chlorophenyl)-2-[(4-phenylpiperazin-1-yl)methyl]-2,4-dihydro-3H-1,2,4-triazole-3-thione], the “p/t, number of animals protected against MES-induced seizures / number tested” value in series [1] (setting [2]), in series [1] (setting [3]), in series [1] (setting [4]) and in series [1] (setting [5]) was 0/8 throughout. The responders at 300 mg/kg in series [1] (setting [6]), in series [1] (setting [7]), in series [1] (setting [8]) and in series [1] (setting [9]) was 0% each time.
Take `Fc1ccc(N2CCN(Cn3nc(-c4cccc(Cl)c4)n(-c4ccc(Br)cc4)c3=S)CC2)cc1` [Compound 21a, 4-(4-Bromophenyl)-5-(3-chlorophenyl)-2-{[4-(4-fluorophenyl)piperazin-1-yl]methyl}-2,4-dihydro-3H-1,2,4-triazole-3-thione]: the “p/t, number of animals protected against MES-induced seizures / number tested” value in series [1] (setting [2]), in series [1] (setting [3]), in series [1] (setting [4]) and in series [1] (setting [5]) was 0/8 throughout. The responders at 300 mg/kg in series [1] (setting [6]), in series [1] (setting [7]), in series [1] (setting [8]) and in series [1] (setting [9]) was 0% each time.
For `S=c1n(CN2CCOCC2)nc(-c2ccc(Cl)cc2)n1-c1ccc(Br)cc1` [Compound 28a, 4-(4-Bromophenyl)-5-(4-chlorophenyl)-2-(morpholin-4-ylmethyl)-2,4-dihydro-3H-1,2,4-triazole-3-thione], the “p/t, number of animals protected against MES-induced seizures / number tested” value in series [1] (setting [2]), in series [1] (setting [3]), in series [1] (setting [4]) and in series [1] (setting [5]) was 0/8 in each case. Also, the responders at 300 mg/kg in series [1] (setting [6]), in series [1] (setting [7]), in series [1] (setting [8]) and in series [1] (setting [9]) was 0% each time.
